Non-standard residues stand in square brackets, D forms with d. Residues, ends and D or L forms follow the SMILES beside them. *: point of attachment. NHCH2CH2(piperidin-1-yl) = C1CCN(CCN*)CC1; NH((S)CH(Me)CH2NMe2) = C[C@@H](CN(C)C)N*; NH(2-morpholinoethyl) = C(CN1CCOCC1)N*; Cyclopentanecarbonyl = O=C(C1CCCC1)*; Gly(octyl) = CCCCCCCC[C@H](N)C(=O)O; X11 = C[C@@H]1CN(CCN*)C[C@H](C)O1; NHCH2CH2NMe2 = CN(C)CCN*; Hexanoyl = CCCCCC(=O)*; Aib = CC(C)(N)C(=O)O; X2 = CN(C)CCN(C)*; βAla = NCCC(=O)O
Assays:
[1] = Cytotoxicity assay on L6-cells (Alamar Blue); settings: rat, Cytotox L6, Cytotoxicity against rat myoblast cells (L6)
[2] = tested on: Trypanosoma brucei rhodesiense (STIB 900 strain); assay: Alamar Blue assay against Trypanosoma brucei rhodesiense grown in axenic medium; type: cell-based; settings: In vitro inhibition, read-out: T.b.rhod.
In short: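 T. b. rhodesiense STIB 900 cultured in axenic medium and exposed to samples in an Alamar Blue viability assay, run in triplicate. IC50 calculated from the readout; melarsoprol served as reference drug.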

[3] = tested on: Axenically grown Leishmania donovani amastigotes (strain MHOM/ET/67/L82); assay: Axenic Leishmania donovani amastigote resazurin assay; type: cell-based; settings: In vitro inhibition, read-out: L.don. ax
In short: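 Strain MHOM/ET/67/L82 amastigotes grown axenically and tested in triplicate by resazurin assay. Plates developed 2-4 hours, fluorescence read at 536 nm excitation/588 nm emission and expressed as percentage of negative control.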

[4] = tested on: intracellular Leishmania donovani (L.don. InMac); assay: Intracellular Leishmania donovani assay (L.don. InMac); type: cell-based; settings: In vitro inhibition
Text: (§1) Tests were done in triplicate.

[5] = tested on: Plasmodium falciparum; assay: 3H-hypoxanthine incorporation assay against Plasmodium falciparum; type: cell-based; settings: In vitro inhibition, read-out: P.falc NF5
Experimental: as §1
IC50 values were calculated by linear interpolation.

[6] = tested on: Trypanosoma cruzi trypomastigote forms (Tulahuen strain); assay: Intracellular Trypanosoma cruzi assay in L6-cells, beta-galactosidase/CPRG readout; type: cell-based; settings: In vitro inhibition, read-out: T.cruzi.
In short: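 L6 rat myoblasts infected with Tulahuen C2C4 LacZ T. cruzi; after incubation, CPRG/Nonidet substrate added and colour developed 2–6 h. Absorbance at 540 nm; IC50 calculated; triplicate tests.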

Row | SMILES | IC50 at 70 h [1] [nM] | IC50 [2] [nM] | IC50 [3] [nM] | IC50 [4] [nM] | IC50 [5] [nM] | IC50 [6] [nM]
1 | CCCCCCCC[C@H](NC(=O)[C@@H]1CCCN1C(=O)CCCCC)C(=O)N[C@H](C(=O)NC(C)(C)C(=O)N[C@@H](CC(C)C)C(=O)N[C@@H](CC(C)C)C(=O)NC(C)(C)C(=O)NC(C)(C)C(=O)NCCC(=O)N[C@@H](C)CN(C)C)[C@@H](C)O [Compound 5604, (2S)-N-[(1S,2R)-1-[(1-{[(1S)-1-{[(1S)-1-{[1-({1-[(2-{[(2S)-1-(dimethylamino)propan-2-yl]carbamoyl}ethyl)carbamoyl]-1-methylethyl}carbamoyl)-1-methylethyl]carbamoyl}-3-methylbutyl]carbamoyl}-3-methylbutyl]carbamoyl}-1-methylethyl)carbamoyl]-2-hydroxypropyl]-2-{[(2S)-1-hexanoylpyrrolidin-2-yl]formamido}decanamide] (Hexanoyl-P[Gly(octyl)]T[Aib]LL[Aib][Aib][βAla]-{NH((S)CH(Me)CH2NMe2)}) | 1290 | 0.8 | 4 | 228 | 3.6 | 426
2 | CCCCCCCC[C@H](NC(=O)[C@@H]1CCCN1C(=O)CCCCC)C(=O)N[C@@H](CC(C)C)C(=O)NC(C)(C)C(=O)N[C@@H](CC(C)C)C(=O)N[C@@H](CC(C)C)C(=O)NC(C)(C)C(=O)NC(C)(C)C(=O)NCCC(=O)N[C@@H](C)CN(C)C [Compound 5632, (2S)-N-[(1S)-1-[(1-{[(1S)-1-{[(1S)-1-{[1-({1-[(2-{[(2S)-1-(dimethylamino)propan-2-yl]carbamoyl}ethyl)carbamoyl]-1-methylethyl}carbamoyl)-1-methylethyl]carbamoyl}-3-methylbutyl]carbamoyl}-3-methylbutyl]carbamoyl}-1-methylethyl)carbamoyl]-3-methylbutyl]-2-{[(2S)-1-hexanoylpyrrolidin-2-yl]formamido}decanamide] (Hexanoyl-P[Gly(octyl)]L[Aib]LL[Aib][Aib][βAla]-{NH((S)CH(Me)CH2NMe2)}) | 162 | 0.4 | 1.3 | 52.1 | 0.1 | 10.2
3 | CCCCCCCC[C@H](NC(=O)[C@@H]1CCCN1C(C)=O)C(=O)N[C@@H](CC(C)C)C(=O)NC(C)(C)C(=O)N[C@@H](CC(C)C)C(=O)N[C@@H](CC(C)C)C(=O)NC(C)(C)C(=O)NC(C)(C)C(=O)NCCC(=O)N[C@@H](C)CN(C)C [Compound 5638, (2S)-2-{[(2S)-1-acetylpyrrolidin-2-yl]formamido}-N-[(1S)-1-[(1-{[(1S)-1-{[(1S)-1-{[1-({1-[(2-{[(2S)-1-(dimethylamino)propan-2-yl]carbamoyl}ethyl)carbamoyl]-1-methylethyl}carbamoyl)-1-methylethyl]carbamoyl}-3-methylbutyl]carbamoyl}-3-methylbutyl]carbamoyl}-1-methylethyl)carbamoyl]-3-methylbutyl]decanamide] (Ac-P[Gly(octyl)]L[Aib]LL[Aib][Aib][βAla]-{NH((S)CH(Me)CH2NMe2)}) | 634 | 0.4 | 7 | 224 | 0.6 | 98.5
4 | CCCCCCCC[C@H](NC(=O)C1CCCC1)C(=O)N[C@H](C(=O)NC(C)(C)C(=O)N[C@@H](CC(C)C)C(=O)N[C@@H](CC(C)C)C(=O)NC(C)(C)C(=O)NC(C)(C)C(=O)NCCC(=O)N[C@@H](C)CN(C)C)[C@@H](C)O [Compound 5641, (2S)-2-(cyclopentylformamido)-N-[(1S,2R)-1-[(1-{[(1S)-1-{[(1S)-1-{[1-({1-[(2-{[(2S)-1-(dimethylamino)propan-2-yl]carbamoyl}ethyl)carbamoyl]-1-methylethyl}carbamoyl)-1-methylethyl]carbamoyl}-3-methylbutyl]carbamoyl}-3-methylbutyl]carbamoyl}-1-methylethyl)carbamoyl]-2-hydroxypropyl]decanamide] (Cyclopentanecarbonyl-[Gly(octyl)]T[Aib]LL[Aib][Aib][βAla]-{NH((S)CH(Me)CH2NMe2)}) | 1670 | 3.9 | 8.2 | 862 | 72.9 | 1400
5 | CCCCCCCC[C@H](NC(=O)[C@@H]1CCCN1C(=O)CCCCC)C(=O)N[C@@H](CC(C)C)C(=O)NC(C)(C)C(=O)N[C@@H](CC(C)C)C(=O)N[C@@H](CC(C)C)C(=O)NC(C)(C)C(=O)NC(C)(C)C(=O)NCCC(=O)NCCN(C)C [Compound 5643, (2S)-N-[(1S)-1-[(1-{[(1S)-1-{[(1S)-1-{[1-({1-[(2-{[2-(dimethylamino)ethyl]carbamoyl}ethyl)carbamoyl]-1-methylethyl}carbamoyl)-1-methylethyl]carbamoyl}-3-methylbutyl]carbamoyl}-3-methylbutyl]carbamoyl}-1-methylethyl)carbamoyl]-3-methylbutyl]-2-{[(2S)-1-hexanoylpyrrolidin-2-yl]formamido}decanamide] (Hexanoyl-P[Gly(octyl)]L[Aib]LL[Aib][Aib][βAla]-NHCH2CH2NMe2) | 862 | 4.9 | 3.6 | 107 | 3 | 89.8
6 | CCCCCCCC[C@H](NC(=O)[C@@H]1CCCN1C(=O)CCCCC)C(=O)N[C@@H](CC(C)C)C(=O)NC(C)(C)C(=O)N[C@@H](CC(C)C)C(=O)N[C@@H](CC(C)C)C(=O)NC(C)(C)C(=O)NC(C)(C)C(=O)NCCC(=O)N(C)CCN(C)C [Compound 5644, (2S)-N-[(1S)-1-[(1-{[(1S)-1-{[(1S)-1-{[1-({1-[(2-{[2-(dimethylamino)ethyl](methyl)carbamoyl}ethyl)carbamoyl]-1-methylethyl}carbamoyl)-1-methylethyl]carbamoyl}-3-methylbutyl]carbamoyl}-3-methylbutyl]carbamoyl}-1-methylethyl)carbamoyl]-3-methylbutyl]-2-{[(2S)-1-hexanoylpyrrolidin-2-yl]formamido}decanamide] (Hexanoyl-P[Gly(octyl)]L[Aib]LL[Aib][Aib][βAla]-X2) | 1240 | 208 | 148 | 844 | 26 | 1470
7 | CCCCCCCC[C@H](NC(=O)[C@@H]1CCCN1C(=O)CCCCC)C(=O)N[C@@H](CC(C)C)C(=O)NC(C)(C)C(=O)N[C@@H](CC(C)C)C(=O)N[C@@H](CC(C)C)C(=O)NC(C)(C)C(=O)NC(C)(C)C(=O)NCCC(=O)NCCN1CCOCC1 [Compound 5646, (2S)-2-{[(2S)-1-hexanoylpyrrolidin-2-yl]formamido}-N-[(1S)-3-methyl-1-[(1-methyl-1-{[(1S)-3-methyl-1-{[(1S)-3-methyl-1-{[1-methyl-1-({1-methyl-1-[(2-{[2-(morpholin-4-yl)ethyl]carbamoyl}ethyl)carbamoyl]ethyl}carbamoyl)ethyl]carbamoyl}butyl]carbamoyl}butyl]carbamoyl}ethyl)carbamoyl]butyl]decanamide] (Hexanoyl-P[Gly(octyl)]L[Aib]LL[Aib][Aib][βAla]-{NH(2-morpholinoethyl)}) | 1460 | 212 | 1.6 | 99.5 | 22.4 | 392
8 | CCCCCCCC[C@H](NC(=O)[C@@H]1CCCN1C(=O)CCCCC)C(=O)N[C@@H](CC(C)C)C(=O)NC(C)(C)C(=O)N[C@@H](CC(C)C)C(=O)N[C@@H](CC(C)C)C(=O)NC(C)(C)C(=O)NC(C)(C)C(=O)NCCC(=O)NCCN1CCCCC1 [Compound 5647, (2S)-2-{[(2S)-1-hexanoylpyrrolidin-2-yl]formamido}-N-[(1S)-3-methyl-1-[(1-methyl-1-{[(1S)-3-methyl-1-{[(1S)-3-methyl-1-{[1-methyl-1-({1-methyl-1-[(2-{[2-(piperidin-1-yl)ethyl]carbamoyl}ethyl)carbamoyl]ethyl}carbamoyl)ethyl]carbamoyl}butyl]carbamoyl}butyl]carbamoyl}ethyl)carbamoyl]butyl]decanamide] (Hexanoyl-P[Gly(octyl)]L[Aib]LL[Aib][Aib][βAla]-{NHCH2CH2(piperidin-1-yl)}) | 182 | 3.6 | 3 | 62.1 | 0.6 | 13.4
9 | CCCCCCCC[C@H](NC(=O)[C@@H]1CCCN1C(=O)CCCCC)C(=O)N[C@@H](CC(C)C)C(=O)NC(C)(C)C(=O)N[C@@H](CC(C)C)C(=O)N[C@@H](CC(C)C)C(=O)NC(C)(C)C(=O)NC(C)(C)C(=O)NCCC(=O)NCCN1C[C@@H](C)O[C@@H](C)C1 [Compound 5648, (2S)-N-[(1S)-1-[(1-{[(1S)-1-{[(1S)-1-({1-[(1-{[2-({2-[(2R,6S)-2,6-dimethylmorpholin-4-yl]ethyl}carbamoyl)ethyl]carbamoyl}-1-methylethyl)carbamoyl]-1-methylethyl}carbamoyl)-3-methylbutyl]carbamoyl}-3-methylbutyl]carbamoyl}-1-methylethyl)carbamoyl]-3-methylbutyl]-2-{[(2S)-1-hexanoylpyrrolidin-2-yl]formamido}decanamide] (Hexanoyl-P[Gly(octyl)]L[Aib]LL[Aib][Aib][βAla]-X11) | 2280 | 54.7 | 0.5 | 186 | 26.9 | 229
